Like-named read-outs stand apart in the source and are kept apart here. Square brackets hold non-standard residues; d marks the D form. Peptide text beside a SMILES is read from it. * marks the point of attachment. Phe(4-(2-MeO-Ph)) = COc1ccccc1-c1ccc(C[C@H](N)C(=O)O)cc1; Cyclohexanoyl(1S,3S-3-NH2) = N[C@H]1CCC[C@H](C(=O)*)C1; Trp(5-OMe) = COc1ccc2[nH]cc(C[C@H](N)C(=O)O)c2c1; Trp(5-OH) = N[C@@H](Cc1c[nH]c2ccc(O)cc12)C(=O)O; NHPh(4-CH2-morpholino) = c1cc(N*)ccc1CN1CCOCC1; NH(4-morpholinophenyl) = c1cc(N2CCOCC2)ccc1N*; Bip = N[C@@H](Cc1ccc(-c2ccccc2)cc1)C(=O)O; hArg = N=C(N)NCCCC[C@H](N)C(=O)O; X2 = Fc1cc(N*)ccc1N1CCOCC1; X3 = c1cc(N2CCNCC2)ccc1N*
Assays:
[1] = target: T1, recombinant EphA4 ligand binding domain (Homo sapiens, UniProt P54764, C204A); assay: Isothermal titration calorimetry (ITC) against EphA4-LBD
T1 construct: His tag (N); made in house; host or cells: E. coli Rosetta-Gami B(DE3), pET15b
T1 sequence (P54764 29-209 C204A): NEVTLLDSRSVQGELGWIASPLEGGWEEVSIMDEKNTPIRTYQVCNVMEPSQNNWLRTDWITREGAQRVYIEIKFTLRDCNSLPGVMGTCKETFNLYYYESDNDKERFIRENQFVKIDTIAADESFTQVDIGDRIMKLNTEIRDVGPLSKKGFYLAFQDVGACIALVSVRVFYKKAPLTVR
Experimental: (§1) Peptides were synthesized by using standard solid-phase synthesis protocol, using the BAL resin as anchoring for the C-terminal amines. Isothermal Titration Calorimetry (ITC) measurements were performed in a reverse fashion by titrating the protein into the ligand solution. Solution nuclear magnetic resonance (NMR) experiments were conducted on a 700 MHz Bruker Avance spectrometer equipped with a TCI cryoprobe. Each protein sample was dissolved into an NMR tube at a final concentration of 20 μM (1% DMSO-d6) in the presence of 20 μM of each compound.
The fragments were transformed into Rosetta-Gami B(DE3) competent cells and grown in LB medium at 37° C. with 100 μg/mL of ampicillin until reaching an OD600 of 0.6-0.7 followed by induction with 0.4 mM IPTG overnight at 20° C. Bacteria were then collected by centrifugation and lysed by sonication at 4° C. […] EphA4 LBD with ^13C^ε/^1H^ε-Met labeled was expressed like previously described but adding a suspension of 100 mg of ^13C^ε/^1H^ε-Methionine in 1 mL of DMSO per liter of LB medium, 10 minutes before induction. […] Transformation, expression, and purification of EphA3-LBD chimera was performed as described above for EphA4-LBD.
Isothermal titration calorimetry (ITC) measurements were performed using the Affinity ITC Autosampler from TA Instruments (New Castle, Del.). The titrations were performed in a reverse fashion by titrating the protein into the ligand solution. […] The syringe was filled with a 100 μM solution of EphA4-LBD, EphA3-LBD Chimera, or EphA2-LBD, and 20 injections of 2.5 μL each were performed into the cell containing a 20 μM solution of the compounds. The injections were made at 200 s or 400 s intervals with a stirring speed of 75 rpm. All the solutions were kept in the autosampler at 4° C. The analysis of the thermodynamics signatures and for dissociation constant determination was performed by the NanoAnalyze software (TA Instruments, New Castle, Del.) and subsequently exported into Microsoft Excel.

[2] = target: T2, ^13C^ε-Met-labeled EphA4-LBD (Homo sapiens, UniProt P54764, C204A); assay: 2D [13C,1H] HSQC NMR chemical shift perturbation of Met resonances; assay type: binding; conditions: for Δδ ^13C^ϵ/^1H^ϵ Met 164: protein 20 μM, 20 μM of each compound; for Δδ Met 60 / Δδ Met 115 / Δδ Met 164: test ligands at 40 μM, EphA4-LDB at 20 μM, Table 8
T2 construct: His tag (N); made in house; host or cells: E. coli Rosetta-Gami B(DE3), pET15b
T2 sequence (P54764 29-209 C204A): as above
Experimental: as §1, with “Each protein sample was dissolved into an NMR tube at a final concentration of 20 μM (1% DMSO-d6) in the presence of 20 μM of each compound.” left out
2D [^13C,^1H] correlation NMR spectra measured with such protein targets, collected in absence or presence of test ligands can be used to monitor ligand binding and make, albeit qualitative, determinations on possible conformational changes induced by test ligands on the protein target. […] In targeting EphA4, an important aspect regarding the activity of its ligands is whether these agents could be predicted to work as antagonists or agonists.
NMR spectra were acquired on Bruker Avance III 700 MHz spectrometer equipped with a TCI cryoprobe. All NMR data were processed and analyzed using TOPSPIN 3.6.1 (Bruker, Billerica, Mass., USA).
Chemical shift changes (A) in the 2D [^13C, ^1H] spectra were calculated as weight average perturbations observed in the ^1H and ^13C dimensions using the following Equation: […]

Aqueous solubility = assay type: physicochemical
EphA4 = conditions: reported previously; cited from earlier work
[3] = tested on: SOD1(G93A) transgenic mice; conditions: SOD1(G93A) models, literature; cited from earlier work
[4] = tested on: mouse motor neurons co-cultured with iAstrocytes derived from sALS patients; assay: Co-culture of sALS patient derived iAstrocytes and motor neurons (motor neuron survival); assay type: cell-based; conditions: 100 μM
From the text: EphA4 has been directly implicated in the progression of ALS in mice models and in human genetic studies. While the mechanisms for onset and progression of ALS remain largely undetermined, astrocytes have been implicated as significant contributors to motor neuron death in both in familial ALS (fALS), that is driven by inactivating mutations within the superoxide dismutase 1 (SOD1) gene and that account for less than 2% of all ALS cases, (Di Giorgio et al., Nat Neurosci, 10 (5): 608-614, (2007); Nagai et al., Nat Neurosci, 10 (5): 615-622, (2007); Yamanaka et al., Nat Neurosci, 11 (3): 251-253, (2008)) and the more common sporadic form of ALS (sALS). […] Recently, it was shown that astrocytes derived from both patient groups are similarly toxic to motor neurons (Haidet-Phillips et al., Nat Biotechnol, 29 (9): 824-828, (2011)).
Induced Astrocytes were generated by seeding a low quantity of NPCs into astrocyte medium (DMEM media containing 10% FBS and 0.2% N2) for five days. Following differentiation, iAstrocytes were lifted and seeded into a 96 well (10,000 cells per well).
Cells are sorted through a 100 micron tip with sheath pressure of 27. GFP+ motor neurons were seeded in a 96 well plate (10,000 cells per well). Co-cultures were imaged with InCell for up to three days. Motor neurons with neurite outgrowth of greater than 50 um were counted as alive.

[5] = ITC with the ligand binding domain, Table 8, read-out: Kd (nM) vs EphA4

SMILES | Kd [1] [nM] | -TΔS ([1]; ITC, EphA4-LBD) [kcal/mol] | AH ([1]; ITC, EphA4-LBD) [kcal/mol] | Δδ ^13C^ϵ/^1H^ϵ Met 164 [2] | Aqueous Solubility (Aqueous solubility) [mM] | Kd [1, 5] [nM] | Δδ Met 60 [2] | Δδ Met 115 [2] | Δδ Met 164 [2] | Kd ([1]; ITC, EphA4-LBD, read-out: Kd (nM)- ITC) [nM] | agonistic activity for EphA4 in primary cortical neurons (EphA4) | disease onset / survival [3] | protection of motor neurons from sALS astrocytes-induced death [4]
COc1ccccc1-c1ccc(C[C@H](NC(=O)[C@H](Cc2c[nH]c3ccc(O)cc23)NC(=O)[C@H]2CCC[C@H](N)C2)C(=O)N[C@@H](CCCCNC(=N)N)C(=O)NCC(=O)Nc2ccc(N3CCOCC3)c(F)c2)cc1 [Compound 16] ({Cyclohexanoyl(1S,3S-3-NH2)}-[Trp(5-OH)][Phe(4-(2-MeO-Ph))][hArg]G-X2) | 127 | 0.58 | -10.00 | + (0< + <0.1 ppm) |  |  |  |  |  |  |  |  | 
COc1ccccc1-c1ccc(C[C@H](NC(=O)[C@H](Cc2c[nH]c3ccc(O)cc23)NC(=O)[C@H]2CCC[C@H](N)C2)C(=O)N[C@@H](CCCCNC(=N)N)C(=O)NCC(=O)Nc2ccc(CN3CCOCC3)cc2)cc1 [Compound 2, (1S,3S)-3-amino-N—((S)-1-(((S)-1-(((S)-6-guanidino-1-((2-((4-(morpholinomethyl)phenyl)amino)-2-oxoethyl)amino)-1-oxohexan-2-yl)amino)-3-(2′-methoxy-[1,1′-biphenyl]-4-yl)-1-oxopropan-2-yl)amino)-3-(5-hydroxy-1H-indol-3-yl)-1-oxopropan-2-yl)cyclohexane-1-carboxamide] ({Cyclohexanoyl(1S,3S-3-NH2)}-[Trp(5-OH)][Phe(4-(2-MeO-Ph))][hArg]G-{NHPh(4-CH2-morpholino)}) | 75 | -0.97 | -8.74 | + (0< + <0.1 ppm) | >50 | 77 | ++ (0.1 ppm < ++ <0.2 ppm) | + (0< + <0.1 ppm) | + (0< + <0.1 ppm) |  |  |  | 
COc1ccc2[nH]cc(C[C@H](NC(=O)[C@H]3CCC[C@H](N)C3)C(=O)N[C@@H](Cc3ccc(-c4ccccc4OC)cc3)C(=O)N[C@@H](CCCCNC(=N)N)C(=O)NCC(=O)Nc3ccc(CN4CCOCC4)cc3)c2c1 [Compound 5] ({Cyclohexanoyl(1S,3S-3-NH2)}-[Trp(5-OMe)][Phe(4-(2-MeO-Ph))][hArg]G-{NHPh(4-CH2-morpholino)}) | 163 | -2.25 | -7.00 | ++ (0.1 ppm < ++ < 0.2 ppm) |  |  |  |  |  |  |  |  | 
COc1ccccc1-c1ccc(C[C@H](NC(=O)[C@H](Cc2c[nH]c3ccc(O)cc23)NC(=O)[C@H]2CCC[C@H](N)C2)C(=O)N[C@@H](CCCCNC(=N)N)C(=O)NCC(=O)Nc2ccc(N3CCOCC3)cc2)cc1 [Compound 3, (1S,3S)-3-amino-N—((S)-1-(((S)-1-(((S)-6-guanidino-1-((2-((4-morpholinophenyl)amino)-2-oxoethyl)amino)-1-oxohexan-2-yl)amino)-3-(2′-methoxy-[1,1′-biphenyl]-4-yl)-1-oxopropan-2-yl)amino)-3-(5-hydroxy-1H-indol-3-yl)-1-oxopropan-2-yl)cyclohexane-1-carboxamide] ({Cyclohexanoyl(1S,3S-3-NH2)}-[Trp(5-OH)][Phe(4-(2-MeO-Ph))][hArg]G-{NH(4-morpholinophenyl)}) |  | -0.60 | -8.92 | + (0< + <0.1 ppm) | >50 |  | + (0< + <0.1 ppm) | + (0< + <0.1 ppm) | + (0< + <0.1 ppm) | 106 |  |  | 
COc1ccc2[nH]cc(C[C@H](NC(=O)[C@H]3CCC[C@H](N)C3)C(=O)N[C@@H](Cc3ccc(-c4ccccc4)cc3)C(=O)N[C@@H](CCCCNC(=N)N)C(=O)NCC(=O)Nc3ccc(CN4CCOCC4)cc3)c2c1 [Compound 4] ({Cyclohexanoyl(1S,3S-3-NH2)}-[Trp(5-OMe)][Bip][hArg]G-{NHPh(4-CH2-morpholino)}) | 100 | -3.57 | -5.99 | +++ (0.2< +++ <0.25) |  |  |  |  |  |  |  |  | 
N=C(N)NCCCC[C@H](NC(=O)[C@H](Cc1ccc(-c2ccccc2)cc1)NC(=O)[C@H](Cc1c[nH]c2ccc(O)cc12)NC(=O)[C@H]1CCC[C@H](N)C1)C(=O)NCC(=O)Nc1ccc(CN2CCOCC2)cc1 [Compound 9, (1S,3S)—N—((S)-1-(((S)-3-([1,1′-biphenyl]-4-yl)-1-(((S)-6-guanidino-1-((2-((4-(morpholinomethyl)phenyl)amino)-2-oxoethyl)amino)-1-oxohexan-2-yl)amino)-1-oxopropan-2-yl)amino)-3-(5-hydroxy-1H-indol-3-yl)-1-oxopropan-2-yl)-3-aminocyclohexane-1-carboxamide] ({Cyclohexanoyl(1S,3S-3-NH2)}-[Trp(5-OH)][Bip][hArg]G-{NHPh(4-CH2-morpholino)}) |  | -1.90 | -7.44 | +++ (0.2< +++ <0.25) | >50 | 144 | ++ (0.1 ppm < ++ <0.2 ppm) | + (0< + <0.1 ppm) | +++ (0.2< +++ <0.25) |  |  |  | 
N=C(N)NCCCC[C@H](NC(=O)[C@H](Cc1ccc(-c2ccccc2)cc1)NC(=O)[C@H](Cc1c[nH]c2ccc(O)cc12)NC(=O)[C@H]1CCC[C@H](N)C1)C(=O)NCC(=O)Nc1ccc(N2CCNCC2)cc1 [Compound 10] ({Cyclohexanoyl(1S,3S-3-NH2)}-[Trp(5-OH)][Bip][hArg]G-X3) | 90 | -1.35 | -8.27 | ++++ (++++ >0.25 ppm) |  |  |  |  |  |  |  |  | 
COc1ccc2[nH]cc(CCNC(=O)[C@H](Cc3ccncc3)NC(=O)[C@H](Cc3ccc(Cl)cc3)NC(=O)[C@H](Cc3c[nH]c4ccc(O)cc34)NC(=O)CCCN)c2c1 [Compound 123C4, reference compound] |  |  |  |  |  |  | + (0< + <0.1 ppm) | + (0< + <0.1 ppm) | ++ (0.1 ppm < ++ <0.2 ppm) |  | induced receptor phosphorylation and growth cone collapse | significantly prolonged survival | to a lesser extent, 123C4 (at a higher concentration) were able to protect mouse motor neurons

— US20230203096A1, “EPHA4 TARGETING COMPOUNDS AND METHODS OF USE THEREOF” (priority 2020, published 2023)
